“Also recorded” adds a separate entry of the source. Each block holds one molecule with its values, some of them ahead of it. Where a SMILES comes first, the peptide text is derived from it. Primed or numbered codes have the meaning given here. Where no end group is shown, it is not given here. [ ]: non-standard residue; d: D form. PEG11 = NCCOCCOCCOCCOCCOCCOCCOCCOCCOCCOCCOCCC(=O)O; PEG11′ = not defined here
Assays:
cellular receptor = assay: Receptor recycle vs new receptor synthesis in MGS internalization; format: cell-based
EphA2 [1] = target: T1, EphA2 (Homo sapiens, UniProt P29317); assay: EphA2 dependence of MGS_H1299.2 V4 cell binding and internalization; format: cell-based
T1 construct: endogenous in cells
Excerpt: (§1) The cellular receptor for MGS_H1299.2 v4 is EphA2. The following results were obtained during a study on EphA2.

EphA2 [2] = target: T1, EphA2; assay: MGS_H1299.2 V4 binding to purified EphA2; details: EphA2 study
Excerpt: as §1

[3] = tested on: non-small cell lung cancer cells; assay: Cellular location of MGS, non-small cell lung cancer cells; format: cell-based; details: Intracellular = uptake confirmed, exact compartment not determined
Excerpt: (§2) The FOX-Three Platform has already been validated for targeting of cells and subcellular components. A number of validated MGSs are in various stages of development (Tables 1 and 2) for a variety of cell targeting systems. Methods of conjugating a variety of payloads to the peptide MGSs have been established without disrupting their targeting ability. […] While cell targeting has been established and there are a number of competing antibody-based technologies for targeting the surfaces of target cells, intracellular MGSs were not previously known. […] For example, delivery of a MAb intended to bind to proteins involved in DNA replication in the cell nucleus will be therapeutically ineffective if trapped in the Golgi or other locations in the cell. The FOX-Three screening process was recently refined to include subcellular location targeting as a selection criteria. MGSs have been isolated that accumulate in lysosomes, autophagosomes, and Golgi inside cancer cells, as well as target the plasma membrane (FIG. 3).

viable cells in culture = assay: Cellular uptake of MGS-conjugated MAb (flow cytometry); format: cell-based
Protocol: Peptide MGS with a biotin tag (“handle”) was coupled to an anti-biotin antibody. The antibody was labeled with a fluorescent tag. Panel A. MGS peptide-antibody was incubated with viable cells in culture. Uptake of the antibody into the cells was determined by flow cytometry and normalized to antibody uptake with no MGS peptide. Panel B. Uptake of the antibody was determined by fluorescent microscopy and is indicated by red “dots” in the left panel. The MGS peptide can deliver the antibody to the desired location. Using a MGS peptide that internalizes and directs cargo to the Golgi apparatus in the cell, an antibody was delivered to that subcellular compartment. Panel C. MGS peptide-Antibody was injected I.V. into a tumor bearing mouse. At set times points, near-infrared imaging was used to determine uptake of the antibody in the tumor.
A small peptidic-MGS delivers a large monoclonal antibody into a cell in vitro and in vivo. Small peptides would not be able to carry a MAb that is almost greater than 60-times its molecular weight. Cells were treated with a MAb alone and no cellular uptake occurred. But when that MAb was conjugated to one of the identified MGS peptides, a […] increase in cellular uptake was seen.
Peptidic-MGSs can deliver a MAb and increases cellular uptake by 20-380 (FIG. 4A). Peptidic-MGS can deliver a MAb to a discrete subcellular location as dictated by the MGS. […]

[4] = tested on: non-small cell lung cancer cells; assay: Binding to non-small cell lung cancer cells versus normal control cells; format: cell-based
Excerpt: (§3) The peptide EHPWFNMWSWATQVQE (SEQ ID NO:38) (H2009.2) has been pushed forward first.

cancer cell = assay: Delivery of cell impermeable protein-toxin, cancer cell death; format: cell-based; details: peptide delivering a cell impermeable protein-toxin
Excerpt: as §3

NSCLC cell lines = assay: Cellular uptake kinetics of valency versions of HCC15.2; format: cell-based; details: 4 NSCLC cell lines
Dendritic Cells = assay: Cellular location of MGS, dendritic cells; format: cell-based; details: Intracellular = uptake confirmed, exact compartment not determined
Excerpt: as §2

Lymphoma Cells = assay: Cellular location of MGS, lymphoma cells; format: cell-based
Excerpt: as §2

Cardiomyocytes = assay: Cellular location of MGS, cardiomyocytes; format: cell-based; details: Intracellular = uptake confirmed, exact compartment not determined
Excerpt: as §2

T1 sequence (P29317 24-976, species assumed): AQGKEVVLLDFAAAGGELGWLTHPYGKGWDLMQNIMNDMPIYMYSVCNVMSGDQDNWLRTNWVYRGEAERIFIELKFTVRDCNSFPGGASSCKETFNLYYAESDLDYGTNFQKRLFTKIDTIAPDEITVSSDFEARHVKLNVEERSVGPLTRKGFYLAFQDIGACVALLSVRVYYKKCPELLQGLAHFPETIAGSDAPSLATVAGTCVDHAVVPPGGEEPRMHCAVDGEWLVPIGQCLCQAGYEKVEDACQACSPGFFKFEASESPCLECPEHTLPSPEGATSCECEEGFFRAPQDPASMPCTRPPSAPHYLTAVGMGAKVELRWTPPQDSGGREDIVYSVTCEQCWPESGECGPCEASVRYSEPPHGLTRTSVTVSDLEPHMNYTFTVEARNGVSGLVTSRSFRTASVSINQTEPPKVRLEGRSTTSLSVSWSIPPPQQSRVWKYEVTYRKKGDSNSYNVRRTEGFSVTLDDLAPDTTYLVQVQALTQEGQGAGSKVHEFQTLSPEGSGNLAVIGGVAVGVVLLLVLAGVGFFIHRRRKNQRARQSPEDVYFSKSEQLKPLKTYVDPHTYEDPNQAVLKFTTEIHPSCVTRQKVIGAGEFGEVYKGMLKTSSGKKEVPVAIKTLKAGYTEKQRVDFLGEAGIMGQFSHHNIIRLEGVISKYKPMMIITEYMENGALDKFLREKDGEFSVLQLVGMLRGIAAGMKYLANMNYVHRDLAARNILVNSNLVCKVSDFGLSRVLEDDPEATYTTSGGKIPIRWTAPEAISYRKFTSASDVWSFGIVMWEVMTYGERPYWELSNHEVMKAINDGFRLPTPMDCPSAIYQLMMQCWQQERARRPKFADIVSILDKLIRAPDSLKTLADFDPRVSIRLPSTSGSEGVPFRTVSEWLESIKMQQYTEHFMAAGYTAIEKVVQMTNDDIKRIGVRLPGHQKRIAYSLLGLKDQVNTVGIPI

fate of the bound cellular receptor upon internalization (cellular receptor): primarily degraded upon internalization | peptide binding to cells (EphA2 [1]; increasing EphA2 in cells): increases MGS_H1299.2 V4 binding | peptide binding to cells (EphA2 [1]; reduction of EphA2 in cells): abrogates MGS_H1299.2 V4 binding | competition with EprhrinA1 for binding (EphA2 [2]): compete for binding
Molecule: CC(=O)N[C@@H](Cc1ccc(O)cc1)C(=O)N[C@@H](C)C(=O)N[C@@H](C)C(=O)N[C@@H](Cc1c[nH]c2ccccc12)C(=O)N1CCC[C@H]1C(=O)N[C@@H](C)C(=O)N[C@@H](CO)C(=O)NCC(=O)N[C@@H](C)C(=O)N[C@@H](Cc1c[nH]c2ccccc12)C(=O)N[C@H](C(=O)NCCOCCOCCOCCOCCOCCOCCOCCOCCOCCOCCOCCC(=O)N[C@@H](CS)C(N)=O)[C@@H](C)O [MGS_H1299.2 V4, CH3CO—YAAWPASGAWT—PEG11—C—NH2] (Ac-YAAWPASGAWT[PEG11]C-NH2)
EphA2 internalization and co-localization (EphA2 [1]): induces EphaA2 internalization and co-localizes with the receptor in lysosome

Molecule: AHTIDDEWASYHMQQWNSPP [MGS_H2009.4]
Cellular Location [3]: MGS_H2009.4_Golgi/ER

Molecule: ATEPRKQYATPRVFWTDAPG [MGS_HCC15.1]
Cellular Location [3]: MGS_HCC15.1_Intracellular

fate of the bound cellular receptor upon internalization (cellular receptor): primarily degraded upon internalization
Molecule: CH3CO—FHAVPQSFYT—PEG11—C—NH2 (Ac-FHAVPQSFYT[PEG11′]C-NH2) [HCC15.2 v8]

Molecule: CH3CO—LQWRRNFGVWARYRL—PEG11—C—NH2 (Ac-LQWRRNFGVWARYRL[PEG11′]C-NH2) [HCC15.1 v4]
fate of the bound cellular receptor upon internalization (cellular receptor): primarily degraded upon internalization

Molecule: CH3CO—RGDLATLRQL—PEG11—YC—NH2 (Ac-RGDLATLRQL[PEG11′]YC-NH2) [MGS_H2009.1 v4]
fate of the bound cellular receptor upon internalization (cellular receptor): rapidly recycled back to the cell surface

Molecule: EAMNSAEQSAAVVQWEKRRI [MGS_H460.1]
Cellular Location [3]: MGS_H460.1_PlasmaMembrane

Molecule: EHPWFNMWSWATQVQE [MGS_H2009.2]
Cellular Location [3]: MGS_H2009.2_Lysosome | intracellular delivery of MAb (viable cells in culture): delivers a MAb intracellularly | cell binding specificity [4]: binds to 3 different non-small cell lung cancer cells with minimal binding to normal control cells | potency to induce cell death (cancer cell): 80 nM

Molecule: FAAKRAEWWDPGQLWDAVWN [MGS_H1993.2]
Cellular Location [3]: MGS_H1993.2_Intracellular

Molecule: FEEFYSRQSNTIPYPQQYKG [MGS_H2009.5]
Cellular Location [3]: MGS_H2009.5_ER/Lysosome

Molecule: FHAVPQSFYTAP [MGS_HCC15.2]
Cellular Location [3]: MGS_HCC15.2_Intracellular | change of peptide affinity with valency (NSCLC cell lines; dimer): significant enhancement of peptide affinity with dimerization | change of peptide affinity with valency (NSCLC cell lines; tetramer): modest improvement upon tetramerization

Molecule: GPEDTSRAPENQQKTFHRRW [MGS_XS52.1]
Cellular Location (Dendritic Cells): MGS_XS52.1_Intacellular

Molecule: KSREHVNNSACPSKRITAAL [MGS_A20.2]
Cellular Location (Lymphoma Cells): MGS_A20.2_Plasma Membrane

Molecule: LQWRRDDNVHNFGVWARYRL (Ac-LQWRRDDNVHNFGVWARYRL) [MGS_1299.3]
Cellular Location [3]: MGS_1299.3_Lysosome/; also recorded: Autophagosomes

Molecule: MDGATWWTQLDPLLVWEGET [MGS_H1993.5]
Cellular Location [3]: MGS_H1993.5_Intracellular

Molecule: MTVCNASQRQAHAQATAVSL [MGS_A549.1]
Cellular Location [3]: MGS_A549.1_Intracellular

Molecule: QEALEEWFWKMMPWSGPSGQ [MGS_H1993.3]
Cellular Location [3]: MGS_H1993.3_Intracellular

Molecule: RGDLATLRQLAQEDGVVGVR [MGS_H2009.1]
Cellular Location [3]: MGS_H2009.1_Golgi

Molecule: SADWFQGPAEWLLEGWMGPL [MGS_H1993.6]
Cellular Location [3]: MGS_H1993.6_Intracellular

Molecule: SAKTAVSQRVWLPSHRGGEP [MGS_A20.1]
Cellular Location (Lymphoma Cells): MGS_A20.1_PlasmaMembrane

Molecule: SVEYWGERMYYDVMESLGFS [MGS_H1993.1]
Cellular Location [3]: MGS_H1993.1_Lysosome

Molecule: TWTDFGQWPWPFGAEGTRAF [MGS_H1993.4]
Cellular Location [3]: MGS_H1993.4_Pre-mitotic cells only

Molecule: VSQTMRQTAVPLLWFWTGSL [MGS_H1299.1]
Cellular Location [3]: MGS_H1299.1_Intracellular

Molecule: WLSEAGPVVTVRALRGTGSW [MGS_PCM.1]
Cellular Location (Lymphoma Cells): MGS_PCM.1_Plasma Membrane | Cellular Location (Cardiomyocytes): MGS_PCM.1_Intracellular

Molecule: YAAWPASGAWTGTAPCSAGT [MGS_H1299.2]
Cellular Location [3]: MGS_H1299.2_Intracellular

Molecule: YPGSPTQYPSSMHEYHSSSE [MGS_H2009.3]
Cellular Location [3]: MGS_H2009.3_Lysosome
